The record followed here is paper PMC10384175, “In Vitro and In Silico Evaluation of Antiproliferative Activity of New Isoxazolidine Derivatives Targeting EGFR: Design, Synthesis, Cell Cycle Analysis, and Apoptotic Inducers” (Pharmaceuticals, 2023).

Test [1] deals with MCF-7. Nature of the test: MTT antiproliferative assay, MCF-7. The test is classed as cell-based, human. On the procedure:
(§1) Compounds 2a–g were tested for their growth inhibitory effectiveness against MCF-7, A-549, and SKOV3 cell lines by means of MTT assay, with doxorubicin used as an anticancer standard drug. […] Remarkably, we note the high antiproliferative activity of 2c and 2d, only towards SKOV3.
(§2) The Roswell Park Memorial Institute medium (RPMI 1640, Gibco, Grand Island, NY, USA) was used to culture the following cancer cell lines including MCF-7, A549, and SKOV3. Cells were grown in FBS (10%) and 100 units mL PS (penicillin/streptomycin) and were supplied to the same medium under standard cell conditions in an incubator (5% of CO2, at 37 °C).
(§3) Cell viability was measured according to the previously published work.
On the technique in general: Tetrazolium assays rely on reduction of a dye to a coloured formazan, in cell work by metabolically active cells.

For test [2], the system named is A549. Nature of the test: MTT antiproliferative assay, A549. The test is classed as cell-based, human.
Experimental: Cell viability was measured according to the previously published work [42].
Another test has as its system SKOV-3. Nature of the test: MTT antiproliferative assay, SKOV3. The test is classed as cell-based, human. On the procedure: as §1, §2, §3
Test [3] relates to MCF-7. Nature of the test: Cellular apoptosis assay (flow cytometry), MCF-7. The test is classed as cell-based, human. As to conditions: MCF-7, at IC50, 48 h.
In test [4] the test system is A549. Nature of the test: Cellular apoptosis assay (flow cytometry), A549. The test is classed as cell-based, human. As to conditions: A549, at IC50, 48 h.
Test [5] relates to SKOV3. As to the kind of experiment: Cellular apoptosis assay (flow cytometry), SKOV3. As to conditions: SKOV3, at IC50, 48 h. The test is classed as cell-based, human. Background: Flow cytometry measures light scatter and fluorescence of single cells or particles in a stream.
Test [6] relates to MCF-7. Nature of the test: Flow cytometric cell cycle analysis (PI), MCF-7. As to conditions: for (%) of cells in G0/G1 / (%) of cells in S: MCF-7, 48 h at IC50; for cell cycle arrest phase: MCF-7. The test is classed as cell-based, human. On the procedure: (§4) Based on the antiproliferative activity data shown above, a flow cytometry analysis was performed to identify the cell cycle arrest induced by the selected compounds (2f and 2g) in the three cell lines, for 48 h at their respective IC50 concentrations (Figure 4). The cell cycle (G1, S, and G2) was analyzed after staining the DNA with propidium iodide (PI). […] Towards SKOV3 cell lines, the population of cells in the G0/G1 phase was not affected for 2f (31.4 ± 1.2 vs. 30.8 ± 1.5) and increased for 2g (31.4 ± 1.2 vs. 44.5 ± 0.6). Moreover, in the S phase, it was increased for 2f (43.1 ± 0.6vs. 59.5 ± 0.2) and not affected for 2g (43.1 ± 0.6 vs. 44.8 ± 1.6), however, it decreased in the G2/M phase for both 2f and 2g by a factor of 2.83 and 2.44, respectively.
(§5) The effect of selected compounds on cell cycle phase distribution was determined by flow cytometry using the same protocol described elsewhere.

Test [7] relates to A549. As to the kind of experiment: Flow cytometric cell cycle analysis (PI), A549. The test is classed as cell-based, human. As to conditions: for cell cycle arrest phase: A549.
Experimental: The effect of selected compounds on cell cycle phase distribution was determined by flow cytometry using the same protocol described elsewhere [44].
The test system of test [8] is SKOV3. Nature of the test: Flow cytometric cell cycle analysis (PI), SKOV3. The test is classed as cell-based, human. As to conditions: for (%) of cells in G0/G1 / (%) of cells in S / decrease in the G2/M phase vs control, factor: SKOV3, 48 h at IC50; for cell cycle arrest phase: SKOV3. On the procedure: as §4, §5
In another test the target is EGFR tyrosine kinase (Homo sapiens, UniProt P00533). As to the kind of experiment: EGFR tyrosine kinase inhibition. The test is classed as biochemical. As to conditions: enzymatic inhibition.
Sequence of EGFR tyrosine kinase (P00533 25-1210): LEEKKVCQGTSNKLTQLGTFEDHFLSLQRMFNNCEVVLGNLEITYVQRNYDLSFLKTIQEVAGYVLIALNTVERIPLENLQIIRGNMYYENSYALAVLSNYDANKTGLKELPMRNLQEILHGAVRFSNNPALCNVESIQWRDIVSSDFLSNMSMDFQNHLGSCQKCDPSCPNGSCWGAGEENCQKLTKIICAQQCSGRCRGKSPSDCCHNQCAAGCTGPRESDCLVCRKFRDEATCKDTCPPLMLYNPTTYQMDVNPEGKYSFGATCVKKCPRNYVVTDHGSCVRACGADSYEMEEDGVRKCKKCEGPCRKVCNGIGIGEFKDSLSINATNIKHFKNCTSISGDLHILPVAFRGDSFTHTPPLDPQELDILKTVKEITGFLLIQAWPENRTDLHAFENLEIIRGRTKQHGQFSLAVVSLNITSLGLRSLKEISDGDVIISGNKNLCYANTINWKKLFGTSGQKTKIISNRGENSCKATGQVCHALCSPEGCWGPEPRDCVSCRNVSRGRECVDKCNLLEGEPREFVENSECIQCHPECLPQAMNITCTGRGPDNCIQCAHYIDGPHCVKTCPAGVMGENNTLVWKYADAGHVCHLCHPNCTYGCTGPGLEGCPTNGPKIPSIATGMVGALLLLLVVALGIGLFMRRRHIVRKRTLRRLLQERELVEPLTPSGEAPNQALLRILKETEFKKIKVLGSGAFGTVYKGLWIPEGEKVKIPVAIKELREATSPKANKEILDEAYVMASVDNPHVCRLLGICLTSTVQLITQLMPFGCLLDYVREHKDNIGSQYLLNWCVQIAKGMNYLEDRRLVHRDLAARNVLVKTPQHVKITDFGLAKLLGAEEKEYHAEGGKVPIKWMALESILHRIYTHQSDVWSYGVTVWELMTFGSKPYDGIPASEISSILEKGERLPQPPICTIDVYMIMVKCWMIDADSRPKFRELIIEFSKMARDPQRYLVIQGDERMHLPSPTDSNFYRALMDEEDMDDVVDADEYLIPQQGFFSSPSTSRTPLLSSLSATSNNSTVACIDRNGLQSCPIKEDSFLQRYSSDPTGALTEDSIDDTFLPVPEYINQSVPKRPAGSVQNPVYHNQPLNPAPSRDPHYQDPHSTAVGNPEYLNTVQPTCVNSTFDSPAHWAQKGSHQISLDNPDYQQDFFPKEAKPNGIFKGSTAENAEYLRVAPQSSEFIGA
The mark [9] stands for this setting: Homo sapiens, SK-OV-3, MTT assay.

Experimental for EGFR tyrosine kinase: The EGFR activity was determined based on the method reported by E.A.A. El-Meguid et al. [43].

As for `COc1cccc2c1C(=O)c1c(O)c3c(c(O)c1C2=O)C[C@@](O)(C(=O)CO)C[C@@H]3O[C@H]1C[C@H](N)[C@H](O)[C@H](C)O1` [Doxorubicin, doxorubicin, reference compound], the IC50 – broadly, the concentration needed to halve the response being measured – in the test with MCF-7 [1] (Homo sapiens, MCF7, MTT assay) stood at 2.8 ± 0.4 µM; with A549 [2] (Homo sapiens, A549, MTT assay) it was 4.2 ± 0.24 µM; in the test with SKOV-3 (setting [9]), 4.2 ± 0.013 µM. Besides, the figures for the Early apoptosis in the test on MCF-7 [3], in the test on A549 [4] and in the test with SKOV3 [5] were 17.12%, 9.38% and 20.56%, respectively. For the same molecule, the Intact cells in the test on MCF-7 [3] stood at 7.94%; with A549 [4], 1.16%; in the test with SKOV3 [5], 3.25%. Moreover, the Late apoptosis was 68.7% with MCF-7 [3], 88.01% with A549 [4] and 73.08% in the test on SKOV3 [5]. Moreover, the Necrosis in the test with MCF-7 [3] was determined as 6.24%; with A549 [4], 1.45%; in the test with SKOV3 [5] it was 3.11%. The figures for the “Total death (cellular apoptosis)” value in the test on MCF-7 [3], in the test on A549 [4] and in the test with SKOV3 [5] were 92.06%, 98.84% and 96.75%, respectively. For the same molecule, the “(%) of cells in G0/G1” value is 18.4 ± 0.9% in the test with MCF-7 [6]; 16.12 ± 0.54% with A549 [7] (A549, 48 h at IC50); 16.7 ± 1% in the test with SKOV3 [8]. The “(%) of cells in S” value in the test with MCF-7 [6] came to 34 ± 0.6%; in the test with A549 [7] (A549, 48 h at IC50) it was 34.01 ± 0.24%; with SKOV3 [8], 30.7 ± 0.6%.

On to `COc1cc(C[C@@H]2C[C@H]3C(=O)N(C)[C@@]4(C[C@H](C)CC[C@H]4C(C)C)N3O2)ccc1OC(C)=O` [2e, 4-(((1S,2S,2′R,3a′S,5R)-2-Isopropyl-5,5′-dimethyl-4′-oxotetrahydro-2′H-spiro[cyclohexane-1,6′-imidazo [1,5-b]isoxazol]-2′-yl)methyl)-2-methoxyphenyl acetate], for which the IC50 with MCF-7 [1] (Homo sapiens, MCF7, MTT assay) came out at 66.8 ± 2.7 µM; in the test on A549 [2] (Homo sapiens, A549, MTT assay), 53.5 ± 1.1 µM; in the test on SKOV-3 (setting [9]) it was 27.9 ± 1.9 µM.

For `COc1ccc(C[C@@H]2C[C@H]3C(=O)N(C)C4(C[C@H](C)CC[C@H]4C(C)C)N3O2)cc1OC` (stereo partly drawn) [2d, (2S,2′R,3a′S,5R)-2′-(3,4-dimethoxybenzyl)-2-isopropyl-5,5′-dimethyldihydro-2′H-spiro[cyclohexane-1,6′-imidazo [1,5-b]isoxazol]-4′(5′H)-one], the concentration for half-maximal inhibition (IC50) was determined as 8.7 ± 0.5 µM in the test on MCF-7 [1] (Homo sapiens, MCF7, MTT assay); 25 ± 2.5 µM in the test with A549 [2] (Homo sapiens, A549, MTT assay); 27.6 ± 2.2 µM in the test on SKOV-3 (setting [9]).

Consider `COc1cc(C[C@@H]2C[C@H]3C(=O)N(C)C4(C[C@H](C)CC[C@H]4C(C)C)N3O2)ccc1O` (stereo partly drawn) [2a, (2S,2′R,3a′S,5R)-2′-(4-hydroxy-3-methoxybenzyl)-2-isopropyl-5,5′-dimethyldihydro-2′H-spiro[cyclohexane-1,6′-imidazo [1,5-b]isoxazol]-4′(5′H)-one], for which the 50% inhibitory concentration (IC50) with MCF-7 [1] (Homo sapiens, MCF7, MTT assay) is 21.3 ± 0.5 µM; with A549 [2] (Homo sapiens, A549, MTT assay), 18.1 ± 0.7 µM; in the test with SKOV-3 (setting [9]) it was 14.5 ± 0.9 µM.

On to “(2R,2′R,3a′S,5R)-2′-(2-acetyl-6-hydroxybenzyl)-2,5,5′-trimethyldihydro-2′H-spiro[cyclohexane-1,6′-imidazo [1,5-b]isoxazol]-4′(5′H)-one [2b]”, for which the IC50 is 22.2 ± 0.3 µM with MCF-7 [1] (MTT assay), 48.7 ± 0.9 µM in the test on A549 [2] (MTT assay) and 18.3 ± 0.9 µM with SKOV-3 (MTT assay).

With `Cc1cccc(C[C@@H]2C[C@H]3C(=O)N(C)C4(C[C@H](C)CC[C@H]4C(C)C)N3O2)c1O` (stereo partly drawn) [2c, (2S,2′R,3a′S,5R)-2′-(2-hydroxy-3-methylbenzyl)-2-isopropyl-5,5′-dimethyldihydro-2′H-spiro[cyclohexane-1,6′-imidazo [1,5-b]isoxazol]-4′(5′H)-one], the IC50 in the test on MCF-7 [1] (Homo sapiens, MCF7, MTT assay) was 7.2 ± 0.2 µM; in the test on A549 [2] (Homo sapiens, A549, MTT assay), 35.4 ± 0.14 µM; in the test on SKOV-3 (setting [9]), 19.4 ± 1.4 µM.

Take `COC(=O)c1cc(C)cc(C[C@@H]2C[C@H]3C(=O)N(C)[C@@]4(C[C@H](C)CC[C@H]4C(C)C)N3O2)c1O` [2g, Methyl 2-hydroxy-3-(((1S,2S,2′R,3a′S,5R)-2-isopropyl-5,5′-dimethyl-4′-oxotetrahydro-2′H-spiro[cyclohexane-1,6′-imidazo[1,5-b]isoxazol]-2′-yl)methyl)-5-methylbenzoate]: the IC50 in the test with MCF-7 [1] (Homo sapiens, MCF7, MTT assay) stood at 17.7 ± 1 µM. In the test with MCF-7 [1] (MTT assay), this molecule came in with a 50% inhibitory concentration (IC50) of 9.7 ± 1.3 µM. It took 12.1 ± 1.1 µM to reach half-maximal inhibition in the test with A549 [2] (Homo sapiens, A549, MTT assay) (IC50). This molecule also displayed an IC50 in the test on A549 [2] (MTT assay) of 9.7 ± 0.7 µM. Inhibition on EGFR tyrosine kinase was half-maximal at 0.484 ± 0.01 µM (IC50). In the test on MCF-7 [3], this molecule returned an Early apoptosis of 46.49%, an Intact cells of 24.83%, a Late apoptosis of 20.51% and a Necrosis of 8.17%. For the same molecule, the “Total death (cellular apoptosis)” value in the test with MCF-7 [3] stood at 75.17%. In the test on A549 [4], this molecule returned an Early apoptosis of 60.72%, an Intact cells of 21.24%, a Late apoptosis of 17.69% and a Necrosis of 0.35%. The “Total death (cellular apoptosis)” value with A549 [4] is reported as 78.76%. Further, in the test with SKOV3 [5], the Early apoptosis came to 12.92%, the Intact cells is on record as 3.34%, the Late apoptosis was determined as 81.05% and the Necrosis is 2.68%. In addition, in the test on SKOV3 [5], the “Total death (cellular apoptosis)” value was 96.65%. Besides, in the test on MCF-7 [6], the “cell cycle arrest phase” value was “G0/G1 phase”, the “(%) of cells in G0/G1” value stood at 53.7 ± 0.6% and the “(%) of cells in S” value was determined as 36.3 ± 0.6%. The “cell cycle arrest phase” value with A549 [7] was “G0/G1 phase”. For the same molecule, in the test with A549 [7] (A549, 48 h at IC50), the “(%) of cells in G0/G1” value is recorded as 49.3 ± 0.7%, the “(%) of cells in S” value came to 40.2 ± 0.3%, the “decrease of population in the G2/M phase vs control” value was 2.37 folds and the “decrease of population in the S phase vs control” value is 1.08 folds. In addition, in the test on SKOV3 [8], the “cell cycle arrest phase” value is recorded as “G0/G1 phase”; the “(%) of cells in G0/G1” value was 44.5 ± 0.6%; the “(%) of cells in S” value came out at 44.8 ± 1.6%; the “decrease in the G2/M phase vs control, factor” value is on record as 2.44.

Consider `CC(C)[C@@H]1CC[C@@H](C)C[C@@]12N(C)C(=O)[C@@H]1C[C@@H](Cc3ccccc3O)ON12` [2f, (1S,2S,2′R,3a′S,5R)-2′-(2-Hydroxybenzyl)-2-isopropyl-5,5′-dimethyldihydro-2′H-spiro[cyclohexane-1,6′-imidazo [1,5-b]isoxazol]-4′(5′H)-one], for which the concentration for half-maximal inhibition (IC50) in the test on MCF-7 [1] (Homo sapiens, MCF7, MTT assay) was found to be 9.7 ± 1.3 µM; in the test with MCF-7 [1] (MTT assay), 17.7 ± 1 µM; with A549 [2] (Homo sapiens, A549, MTT assay), 9.7 ± 0.7 µM; in the test with A549 [2] (MTT assay), 12.1 ± 1.1 µM; at EGFR tyrosine kinase, 0.298 ± 0.007 µM. Besides, the Early apoptosis worked out at 70.48% with MCF-7 [3], 16.72% in the test on A549 [4] and 17.9% in the test on SKOV3 [5]. Moreover, the Intact cells amounted to 13.11% in the test on MCF-7 [3], 7.39% with A549 [4] and 8.78% in the test on SKOV3 [5]. Also, the Late apoptosis with MCF-7 [3] is on record as 15.78%; with A549 [4] it was 70.5%; in the test with SKOV3 [5] it was 67.16%. Further, the results for the Necrosis in the test on MCF-7 [3], in the test with A549 [4] and with SKOV3 [5] were 0.63%, 5.39% and 6.16%, respectively. Moreover, the “Total death (cellular apoptosis)” value in the test on MCF-7 [3] turned out to be 86.89%; in the test with A549 [4], 92.61%; with SKOV3 [5] it was 91.22%. The figures for the “cell cycle arrest phase” value with MCF-7 [6], in the test on A549 [7] and in the test on SKOV3 [8] were “S phase”, “G2/M phase” and “S phase”, respectively. In addition, the “(%) of cells in G0/G1” value in the test on MCF-7 [6] was found to be 19 ± 1.2%; in the test with A549 [7] (A549, 48 h at IC50) it was 23.1 ± 0.8%; in the test with SKOV3 [8], 31.4 ± 1.2%. For the same molecule, the figures for the “(%) of cells in S” value with MCF-7 [6] and in the test with SKOV3 [8] were 63.3 ± 0.6% and 59.5 ± 0.2%, respectively. The “decrease in the G2/M phase vs control, factor” value in the test on SKOV3 [8] is recorded as 2.83.
